The test system of data set [1] is pentagastrin-stimulated acid secretion of the perfused rat stomach. In words: Secretion-inhibiting action on the perfused rat stomach (pentagastrin-stimulated acid secretion). Type of data set: in vivo. Particulars: intraduodenal, anesthetized CD rat, dose 1 μmol/kg i.d. An excerpt: Testing of the Secretion-Inhibiting Action on the Perfused Rat Stomach
In Table A which follows, the influence of the compounds of the formula 1 according to the invention on the pentagastrin-stimulated acid secretion of the perfused rat stomach after intraduodenal administration in vivo is shown.
The abdomen of anesthetized rats (CD rat, female, 200-250 g; 1.5 g/kg i.m. urethane) was opened after tracheotomy by a median upper abdominal incision and a PVC catheter was fixed transorally in the esophagus and another via the pylorus such that the ends of the tubes just projected into the gastric lumen. The catheter leading from the pylorus led outward into the right abdominal wall through a side opening.
After thorough rinsing (about 50-100 ml), warm (37° C.) physiological NaCl solution was conbinuously passed through the stomach (0.5 ml/min, pH 6.8-6.9; Braun-Unita I). The pH (pH meter 632, glass electrode EA 147; φ=5 mm, Metrohm) and, by titration with a freshly prepared 0.01N NaOH solution to pH 7 (Dosimat 665 Metrohm), the secreted HCl were determined in the effluent in each case collected at an interval of 15 minutes.
The gastric secretion was stimulated by continuous infusion of 1 μg/kg (=1.65 mllh) of i.v. pentagastrin (left femoral vein) about 30 min after the end of the operation (i.e. after determination of 2 preliminary fractions). The substances to be tested were administered intraduodenally in a 2.5 ml/kg liquid volume 60 min after the start of the continuous pentagastrin infusion. The body temperature of the animals was kept at a constant 37.8-38° C. by infrared irradiation and heat pads (automatic, stepless control by means of a rectal temperature sensor).

SMILES strings stand for the structures. Where only a bound is given, the exact number is not on record here.

In the case of `Cc1nc2c3c(c(C(=O)N4CCCC4)cc2n1C)CCC1(Cc2ccccc2C1)N3` [Example 22, 2,3-dimethyl-5-(pyrrolidin-1-ylcarbonyl)-1′,3,3′,6,7,9-hexahydrospiro[imidazo[4,5-h]-quinoline-8,2′-indene]], the melting point fell in the range of 263 to 264 °C. The compound also gave an inhibition in vivo at 1 µmol/kg in data set [1] above 80%.

For the compound `Cc1nc2c3c(c(C(=O)N4CCC4)cc2n1C)CCC1(Cc2ccccc2C1)N3` [Example 23, 5-(azetidin-1-ylcarbonyl)-2,3-dimethyl-1′,3,3′,6,7,9-hexahydrospiro[imidazo[4,5-h]-quinoline-8,2′-indene]], the melting point lay within 222 to 223 °C. Also, the inhibition in vivo at 1 µmol/kg in data set [1] is above 80%.

For the compound `Cc1nc2c3c(c(C(=O)NC4CC4)cc2n1C)CCC1(Cc2ccccc2C1)N3` [Example 24, N-cyclopropyl-2,3-dimethyl-1′,3,3′,6,7,9-hexahydrospiro[imidazo[4,5-h]quinoline-8,2′-indene]-5-carboxamide], the melting point lay within 247 to 248 °C. Besides, the inhibition in vivo at 1 µmol/kg in data set [1] is above 80%.

`Cc1nc2c3c(c(C(=O)N4CCOCC4)cc2n1C)CCC1(Cc2ccccc2C1)N3` [Example 25, 2,3-dimethyl-5-(morpholin-4-ylcarbonyl)-1′,3,3′,6,7,9-hexahydrospiro[imidazo[4,5-h]-quinoline-8,2′-indene]] registered a melting point of 284 to 285 °C. In addition, the inhibition in vivo at 1 µmol/kg in data set [1] was above 80%.

In the case of `COCCCNC(=O)c1cc2c(nc(C)n2C)c2c1CCC1(Cc3ccccc3C1)N2` [Example 27, N-(3-methoxypropyl)-2,3-dimethyl-1′,3,3′,6,7,9-hexahydrospiro[imidazo[4,5-h]quinoline-8,2′-indene]-5-carboxamide], the melting point is 188 to 189 °C. In data set [1], this compound had an inhibition in vivo at 1 µmol/kg above 80%.

Broadly, the melting point is the temperature, or range, at which the solid turns liquid. Broadly, the inhibition in vivo is the change of the read-out against control, counted positive when it falls. Low readings indicate a response near the control, high ones a response far below the control.
